# Measured values published in patent publication US20100041089A1, “IMPROVED METHOD FOR DETECTING CHEMICAL […]” (priority 2006, published 2010).
# Test system: yeast genes (expressed mRNA)
# Assay: DNA chip measurement of expressed mRNA of yeast genes after culture with a toxic chemical substance
# Format: cell-based, Saccharomyces cerevisiae S288C
# Procedure, shortened: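 Two-hour exposure of growing S. cerevisiae S288C (YPD, 25° C) to a sublethal toxicant preceded RNA isolation. Fluorescent cDNA was hybridized to a whole-genome array; a treated-to-untreated signal ratio of two or more was taken as significant.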
compound,measurement,setting,value
"Oc1cc(Cl)c(Cl)cc1Cl [(6), 2,4,5-Trichlorophenol]",The level of expressed mRNA in the presence of chemical substance/The level of expressed mRNA in the absence of chemical substance,"yeast gene YJR054W, cultured two hours with substance",0.7
same,The level of expressed mRNA in the presence of chemical substance/The level of expressed mRNA in the absence of chemical substance,yeast gene YKL039W,4.9
same,The level of expressed mRNA in the presence of chemical substance/The level of expressed mRNA in the absence of chemical substance,"yeast gene YKL071W, cultured two hours with substance",18.6
same,The level of expressed mRNA in the presence of chemical substance/The level of expressed mRNA in the absence of chemical substance,"yeast gene YKL086W, cultured two hours with substance",1.0
same,The level of expressed mRNA in the presence of chemical substance/The level of expressed mRNA in the absence of chemical substance,"yeast gene YKL151C, cultured two hours with substance",2.0
same,The level of expressed mRNA in the presence of chemical substance/The level of expressed mRNA in the absence of chemical substance,"yeast gene YKL153W, cultured two hours with substance",2.9
same,The level of expressed mRNA in the presence of chemical substance/The level of expressed mRNA in the absence of chemical substance,"yeast gene YKL195W, cultured two hours with substance",2.5
same,The level of expressed mRNA in the presence of chemical substance/The level of expressed mRNA in the absence of chemical substance,yeast gene YKR076W,4.7
same,The level of expressed mRNA in the presence of chemical substance/The level of expressed mRNA in the absence of chemical substance,"yeast gene YKR091W, cultured two hours with substance",1.0
same,The level of expressed mRNA in the presence of chemical substance/The level of expressed mRNA in the absence of chemical substance,"yeast gene YLR054C, cultured two hours with substance",1.2
same,The level of expressed mRNA in the presence of chemical substance/The level of expressed mRNA in the absence of chemical substance,"yeast gene YLR149C, cultured two hours with substance",1.4
same,The level of expressed mRNA in the presence of chemical substance/The level of expressed mRNA in the absence of chemical substance,"yeast gene YLR152C, cultured two hours with substance",2.1
same,The level of expressed mRNA in the presence of chemical substance/The level of expressed mRNA in the absence of chemical substance,"yeast gene YLR194C, cultured two hours with substance",0.9
same,The level of expressed mRNA in the presence of chemical substance/The level of expressed mRNA in the absence of chemical substance,"yeast gene YLR280C, cultured two hours with substance",0.9
same,The level of expressed mRNA in the presence of chemical substance/The level of expressed mRNA in the absence of chemical substance,"yeast gene YLR324W, cultured two hours with substance",1.2
same,The level of expressed mRNA in the presence of chemical substance/The level of expressed mRNA in the absence of chemical substance,"yeast gene YLR350W, cultured two hours with substance",1.6
same,The level of expressed mRNA in the presence of chemical substance/The level of expressed mRNA in the absence of chemical substance,"yeast gene YLR387C, cultured two hours with substance",1.9
same,The level of expressed mRNA in the presence of chemical substance/The level of expressed mRNA in the absence of chemical substance,"yeast gene YLR460C, cultured two hours with substance",0.6
same,The level of expressed mRNA in the presence of chemical substance/The level of expressed mRNA in the absence of chemical substance,"yeast gene YML117W, cultured two hours with substance",1.0
same,The level of expressed mRNA in the presence of chemical substance/The level of expressed mRNA in the absence of chemical substance,"yeast gene YML128C, cultured two hours with substance",5.1
same,The level of expressed mRNA in the presence of chemical substance/The level of expressed mRNA in the absence of chemical substance,"yeast gene YMR009W, cultured two hours with substance",1.2
same,The level of expressed mRNA in the presence of chemical substance/The level of expressed mRNA in the absence of chemical substance,"yeast gene YMR067C, cultured two hours with substance",1.4
same,The level of expressed mRNA in the presence of chemical substance/The level of expressed mRNA in the absence of chemical substance,"yeast gene YMR090W, cultured two hours with substance",3.8
same,The level of expressed mRNA in the presence of chemical substance/The level of expressed mRNA in the absence of chemical substance,"yeast gene YMR095C, cultured two hours with substance",0.7
same,The level of expressed mRNA in the presence of chemical substance/The level of expressed mRNA in the absence of chemical substance,"yeast gene YMR097C, cultured two hours with substance",1.2
same,The level of expressed mRNA in the presence of chemical substance/The level of expressed mRNA in the absence of chemical substance,"yeast gene YMR102C, cultured two hours with substance",6.3
same,The level of expressed mRNA in the presence of chemical substance/The level of expressed mRNA in the absence of chemical substance,"yeast gene YMR107W, cultured two hours with substance",1.0
same,The level of expressed mRNA in the presence of chemical substance/The level of expressed mRNA in the absence of chemical substance,"yeast gene YMR140W, cultured two hours with substance",17.1
same,The level of expressed mRNA in the presence of chemical substance/The level of expressed mRNA in the absence of chemical substance,yeast gene YMR173W (stress protein genes),5.0
same,The level of expressed mRNA in the presence of chemical substance/The level of expressed mRNA in the absence of chemical substance,"yeast gene YMR180C, cultured two hours with substance",2.4
same,The level of expressed mRNA in the presence of chemical substance/The level of expressed mRNA in the absence of chemical substance,"yeast gene YMR184W, cultured two hours with substance",0.9
same,The level of expressed mRNA in the presence of chemical substance/The level of expressed mRNA in the absence of chemical substance,"yeast gene YMR191W, cultured two hours with substance",1.0
same,The level of expressed mRNA in the presence of chemical substance/The level of expressed mRNA in the absence of chemical substance,"yeast gene YMR295C, cultured two hours with substance",1.9
same,The level of expressed mRNA in the presence of chemical substance/The level of expressed mRNA in the absence of chemical substance,"yeast gene YMR316W, cultured two hours with substance",0.7
same,The level of expressed mRNA in the presence of chemical substance/The level of expressed mRNA in the absence of chemical substance,"yeast gene YNL044W, cultured two hours with substance",0.9
same,The level of expressed mRNA in the presence of chemical substance/The level of expressed mRNA in the absence of chemical substance,"yeast gene YNL074C, cultured two hours with substance",1.7
same,The level of expressed mRNA in the presence of chemical substance/The level of expressed mRNA in the absence of chemical substance,"yeast gene YNL092W, cultured two hours with substance",1.2
same,The level of expressed mRNA in the presence of chemical substance/The level of expressed mRNA in the absence of chemical substance,"yeast gene YNL115C, cultured two hours with substance",9.1
same,The level of expressed mRNA in the presence of chemical substance/The level of expressed mRNA in the absence of chemical substance,"yeast gene YNL156C, cultured two hours with substance",1.3
same,The level of expressed mRNA in the presence of chemical substance/The level of expressed mRNA in the absence of chemical substance,yeast gene YNL160W (stress protein genes),5.8
same,The level of expressed mRNA in the presence of chemical substance/The level of expressed mRNA in the absence of chemical substance,"yeast gene YNL190W, cultured two hours with substance",0.5
same,The level of expressed mRNA in the presence of chemical substance/The level of expressed mRNA in the absence of chemical substance,"yeast gene YNL208W, cultured two hours with substance",1.4
same,The level of expressed mRNA in the presence of chemical substance/The level of expressed mRNA in the absence of chemical substance,"yeast gene YNL234W, cultured two hours with substance",1.3
same,The level of expressed mRNA in the presence of chemical substance/The level of expressed mRNA in the absence of chemical substance,"yeast gene YNL281W, cultured two hours with substance",0.9
same,The level of expressed mRNA in the presence of chemical substance/The level of expressed mRNA in the absence of chemical substance,"yeast gene YNL300W, cultured two hours with substance",0.4
same,The level of expressed mRNA in the presence of chemical substance/The level of expressed mRNA in the absence of chemical substance,"yeast gene YNL305C, cultured two hours with substance",1.1
same,The level of expressed mRNA in the presence of chemical substance/The level of expressed mRNA in the absence of chemical substance,"yeast gene YNR064C, cultured two hours with substance",2.1
same,The level of expressed mRNA in the presence of chemical substance/The level of expressed mRNA in the absence of chemical substance,"yeast gene YNR068C, cultured two hours with substance",0.4
same,The level of expressed mRNA in the presence of chemical substance/The level of expressed mRNA in the absence of chemical substance,"yeast gene YOL032W, cultured two hours with substance",2.1
same,The level of expressed mRNA in the presence of chemical substance/The level of expressed mRNA in the absence of chemical substance,"yeast gene YOL036W, cultured two hours with substance",1.2
same,The level of expressed mRNA in the presence of chemical substance/The level of expressed mRNA in the absence of chemical substance,"yeast gene YOL047C, cultured two hours with substance",1.5
same,The level of expressed mRNA in the presence of chemical substance/The level of expressed mRNA in the absence of chemical substance,"yeast gene YOL071W, cultured two hours with substance",1.7
same,The level of expressed mRNA in the presence of chemical substance/The level of expressed mRNA in the absence of chemical substance,"yeast gene YOL082W, cultured two hours with substance",1.8
same,The level of expressed mRNA in the presence of chemical substance/The level of expressed mRNA in the absence of chemical substance,"yeast gene YOL083W, cultured two hours with substance",4.5
same,The level of expressed mRNA in the presence of chemical substance/The level of expressed mRNA in the absence of chemical substance,"yeast gene YOL117W, cultured two hours with substance",2.0
same,The level of expressed mRNA in the presence of chemical substance/The level of expressed mRNA in the absence of chemical substance,"yeast gene YOL131W, cultured two hours with substance",1.1
same,The level of expressed mRNA in the presence of chemical substance/The level of expressed mRNA in the absence of chemical substance,"yeast gene YOL150C, cultured two hours with substance",5.2
same,The level of expressed mRNA in the presence of chemical substance/The level of expressed mRNA in the absence of chemical substance,"yeast gene YOL162W, cultured two hours with substance",1.2
same,The level of expressed mRNA in the presence of chemical substance/The level of expressed mRNA in the absence of chemical substance,"yeast gene YOR019W, cultured two hours with substance",1.3
same,The level of expressed mRNA in the presence of chemical substance/The level of expressed mRNA in the absence of chemical substance,"yeast gene YOR197W, cultured two hours with substance",1.3
same,The level of expressed mRNA in the presence of chemical substance/The level of expressed mRNA in the absence of chemical substance,"yeast gene YOR248W, cultured two hours with substance",0.2
same,The level of expressed mRNA in the presence of chemical substance/The level of expressed mRNA in the absence of chemical substance,"yeast gene YOR255W, cultured two hours with substance",0.5
same,The level of expressed mRNA in the presence of chemical substance/The level of expressed mRNA in the absence of chemical substance,"yeast gene YOR382W, cultured two hours with substance",13.1
same,The level of expressed mRNA in the presence of chemical substance/The level of expressed mRNA in the absence of chemical substance,yeast gene YOR383C,6.8
same,The level of expressed mRNA in the presence of chemical substance/The level of expressed mRNA in the absence of chemical substance,"yeast gene YPL052W, cultured two hours with substance",1.9
same,The level of expressed mRNA in the presence of chemical substance/The level of expressed mRNA in the absence of chemical substance,"yeast gene YPL087W, cultured two hours with substance",4.3
same,The level of expressed mRNA in the presence of chemical substance/The level of expressed mRNA in the absence of chemical substance,"yeast gene YPL196W, cultured two hours with substance",2.0
same,The level of expressed mRNA in the presence of chemical substance/The level of expressed mRNA in the absence of chemical substance,"yeast gene YPL206C, cultured two hours with substance",1.8
same,The level of expressed mRNA in the presence of chemical substance/The level of expressed mRNA in the absence of chemical substance,"yeast gene YPL222W, cultured two hours with substance",2.2
same,The level of expressed mRNA in the presence of chemical substance/The level of expressed mRNA in the absence of chemical substance,"yeast gene YPR023C, cultured two hours with substance",1.4
same,The level of expressed mRNA in the presence of chemical substance/The level of expressed mRNA in the absence of chemical substance,"yeast gene YPR079W, cultured two hours with substance",1.0
same,The level of expressed mRNA in the presence of chemical substance/The level of expressed mRNA in the absence of chemical substance,"yeast gene YPR151C, cultured two hours with substance",1.6
